Results as given in ChEMBL document CHEMBL1615345, “Evaluation of a published in silico model and construction of a novel Bayesian model for predicting phospholipidosis inducing potential” (J Chem Inf Model, 2007).

These molecules were tested on Phospholipidosis.
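Note: phospholipidosis status taken from published literature.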

| Structure (SMILES) | Phospholipidosis |
| --- | --- |
| CC(C)(O/N=C(\C(=O)N[C@@H]1C(=O)N2C(C(=O)[O-])=C(C[n+]3ccccc3)CS[C@H]12)c1csc(N)n1)C(=O)O [CEFTAZIDIME] | Not Active |
| Cc1cn([C@H]2C=C[C@@H](CO)O2)c(=O)[nH]c1=O [STAVUDINE] | Not Active |
| CCCC(CCC)C(=O)[O-].[Na+] [VALPROATE SODIUM] | Not Active |
| O=C(O)CCCCCCNC1c2ccccc2CCc2ccccc21 [AMINEPTINE] | Not Active |
| CC(=O)Nc1ccc(O)cc1 [ACETAMINOPHEN] | Not Active |
| CC(C)C(=O)Nc1ccc([N+](=O)[O-])c(C(F)(F)F)c1 [FLUTAMIDE] | Not Active |
| CC(=O)O[C@]1(C(C)=O)CC[C@H]2[C@@H]3C=C(Cl)C4=CC(=O)[C@@H]5C[C@@H]5[C@]4(C)[C@H]3CC[C@@]21C [CYPROTERONE ACETATE] | Not Active |
| Cc1cn([C@H]2C[C@H](N=[N+]=[N-])[C@@H](CO)O2)c(=O)[nH]c1=O [ZIDOVUDINE] | Not Active |
| N=C(N)NCCCCCCCCCCNC(=N)N [SYNTHALIN] | Not Active |
| NC(=O)NO [HYDROXYUREA] | Not Active |
| Cl.Cl.O=C(CCN1CCN2CCCC2C1)N1c2ccccc2Sc2ccc(Cl)cc21 (stereo not given) [AZACLORZINE HYDROCHLORIDE] | Not Active |
| Cc1cccc(Nc2cc(Cl)nc(SCC(=O)O)n2)c1C [PIRINIXIC ACID] | Not Active |
| Nc1nc(NC2CC2)c2ncn([C@H]3C=C[C@@H](CO)C3)c2n1 [ABACAVIR] | Not Active |
| Cc1ccc2cc3c(ccc4ccccc43)c3c2c1CC3 [3-METHYLCHOLANTHRENE] | Not Active |
| N[C@H]1C(O)O[C@H](CO)[C@@H](O)[C@@H]1O (stereo not given in full) [GLUCOSAMINE] | Not Active |
| CC(=O)Oc1ccccc1C(=O)O [ASPIRIN] | Not Active |
| CN(Cc1cnc2nc(N)nc(N)c2n1)c1ccc(C(=O)N[C@@H](CCC(=O)O)C(=O)O)cc1 [METHOTREXATE] | Not Active |
| CN(C)[C@@H]1C(O)=C(C(N)=O)C(=O)[C@@]2(O)C(O)=C3C(=O)c4c(O)ccc(Cl)c4[C@@](C)(O)[C@H]3C[C@@H]12 [CHLORTETRACYCLINE] | Not Active |
| NC(=O)OCC(COC(N)=O)c1ccccc1 [FELBAMATE] | Not Active |
| CC1=C(CC(=O)O)c2cc(F)ccc2/C1=C\c1ccc([S+](C)[O-])cc1 (stereo not given) | Not Active |

| Structure (SMILES) | Phospholipidosis |
| --- | --- |
| ClC(Cl)(Cl)Cl [CARBON TETRACHLORIDE] | Not Active |
| O=C(O)Cc1ccccc1Nc1c(Cl)cccc1Cl [DICLOFENAC] | Not Active |
| CN(C)C(=N)N=C(N)N [METFORMIN] | Not Active |
| NC(N)=Nc1nc(CSCCC(N)=NS(N)(=O)=O)cs1 [FAMOTIDINE] | Not Active |
| S=C=Nc1cccc2ccccc12 [1-NAPHTHYLISOTHIOCYANATE] | Not Active |
| Cn1nnc2c(C(N)=O)ncn2c1=O [TEMOZOLOMIDE] | Not Active |
| C[C@H]1c2cccc(O)c2C(=O)C2=C(O)[C@]3(O)C(=O)C(C(N)=O)=C(O)[C@@H](N(C)C)[C@@H]3[C@@H](O)[C@@H]21.O [DOXYCYCLINE] | Not Active |
| Cc1ccc(C)c(OCCCC(C)(C)C(=O)O)c1 [GEMFIBROZIL] | Not Active |
| CC(C)OC(=O)C(C)(C)Oc1ccc(C(=O)c2ccc(Cl)cc2)cc1 [FENOFIBRATE] | Not Active |
| CO[C@H]1/C=C/O[C@@]2(C)Oc3c(C)c(O)c4c(O)c(c(/C=N/N5CCN(C)CC5)c(O)c4c3C2=O)NC(=O)/C(C)=C\C=C\[C@H](C)[C@H](O)[C@@H](C)[C@@H](O)[C@@H](C)[C@H](OC(C)=O)[C@@H]1C [RIFAMPIN] | Not Active |
| ClC(Cl)Cl [CHLOROFORM] | Not Active |
| O=C1CN(/N=C/c2ccc(-c3ccc([N+](=O)[O-])cc3)o2)C(O)=N1 [DANTROLENE] | Not Active |
| O=C(O)c1cc(-c2ccc(F)cc2F)ccc1O [DIFLUNISAL] | Not Active |
| CC(c1cc2ccccc2s1)N(O)C(N)=O (stereo not given) [ZILEUTON] | Not Active |
| CC(=O)N(O)CCCCCNC(=O)CCC(=O)N(O)CCCCCNC(=O)CCC(=O)N(O)CCCCCN [DEFEROXAMINE] | Not Active |
| NC(=O)N1c2ccccc2C=Cc2ccccc21 [CARBAMAZEPINE] | Not Active |
| CN(C)[C@@H]1C(O)=C(C(=O)NCN2CCCC2)C(=O)[C@@]2(O)C(O)=C3C(=O)c4c(O)cccc4[C@@](C)(O)[C@H]3C[C@@H]12 [ROLITETRACYCLINE] | Not Active |
| C#C[C@]1(O)CC[C@H]2[C@@H]3CCc4cc(O)ccc4[C@H]3CC[C@@]21C [ETHINYL ESTRADIOL] | Not Active |
| CN(C)[C@@H]1C(O)=C(C(N)=O)C(=O)[C@@]2(O)C(O)=C3C(=O)c4c(O)ccc(Cl)c4[C@@H](O)[C@H]3C[C@@H]12 [DEMECLOCYCLINE] | Not Active |
| COc1cc2c(c(OC)c1OC)-c1ccc(OC)c(=O)cc1[C@@H](NC(C)=O)CC2 [COLCHICINE] | Not Active |

| Structure (SMILES) | Phospholipidosis |
| --- | --- |
| CN1C(C(=O)Nc2ccccn2)=C(O)c2ccccc2S1(=O)=O [PIROXICAM] | Not Active |
| COc1cc2c(cc1OC)C(=O)C(CC1CCN(Cc3ccccc3)CC1)C2 (stereo not given) [DONEPEZIL] | Not Active |
| CCC1(c2ccccc2)C(=O)NC(=O)NC1=O [PHENOBARBITAL] | Not Active |
| CC(C)(Oc1ccc(C2CC2(Cl)Cl)cc1)C(=O)O (stereo not given) [CIPROFIBRATE] | Not Active |
| C[C@](N)(Cc1ccc(O)c(O)c1)C(=O)O [METHYLDOPA] | Not Active |
| CC(O)(CS(=O)(=O)c1ccc(F)cc1)C(=O)Nc1ccc(C#N)c(C(F)(F)F)c1 (stereo not given) [BICALUTAMIDE] | Not Active |
| [N-]=[N+]=CC(=O)OC[C@H](N)C(=O)O [AZASERINE] | Not Active |
| CC(=N)S [THIOACETAMIDE] | Not Active |
| CCC(=O)C(CC(C)N(C)C)(c1ccccc1)c1ccccc1 (stereo not given) [METHADONE] | Not Active |
| CN(C)CCN(Cc1cccs1)c1ccccn1 | Not Active |
| NN [HYDRAZINE] | Not Active |
| CCOC(=O)C(C)(C)Oc1ccc(Cl)cc1 [CLOFIBRATE] | Not Active |
| CCN(CC)CCOC(=O)c1ccc(N)cc1 [PROCAINE] | Not Active |
| CCN1CC(CCN2CCOCC2)C(c2ccccc2)(c2ccccc2)C1=O (stereo not given) [DOXAPRAM] | Not Active |
| CCSCC[C@H](N)C(=O)O [ETHIONINE] | Not Active |
| CNC(=O)Oc1ccc2c(c1)[C@]1(C)CCN(C)[C@@H]1N2C [PHYSOSTIGMINE] | Not Active |
| Cn1c(=O)c2c(ncn2C)n(C)c1=O [CAFFEINE] | Not Active |
| COc1cc([C@@H]2c3cc4c(cc3[C@@H](O[C@@H]3O[C@@H]5CO[C@@H](C)O[C@H]5[C@H](O)[C@H]3O)[C@H]3COC(=O)[C@H]23)OCO4)cc(OC)c1O [ETOPOSIDE] | Not Active |
| CC(NC(C)(C)C)C(=O)c1cccc(Cl)c1 (stereo not given) [BUPROPION] | Not Active |
| Nc1c2c(nc3ccccc13)CCCC2 [TACRINE] | Not Active |
